Laboratory results as given in US20100099762A1, “COMBINATION THERAPY” (THE MENTAL HEALTH RESEARCH INSTITUTE OF VICTORIA, priority 2006, published 2010).

Tested on: bipolar disorder
Experiment: Double blind randomised placebo controlled trial of NAC in addition to treatment as usual in bipolar disorder
Assay type: in vivo, human
From the text: Consented individuals were assigned using simple randomization (Beller et al., 2002) to treatment with NAC or placebo in addition to treatment as usual, in a double-blind fashion. The nature and dose of the primary therapy was monitored. The person generating the randomisation schedule was not involved in any aspect of participant interview. The investigators, clinicians and statisticians were blind to treatment allocation until the data analysis was completed. The study was registered with the Australian Clinical Trials Registry (Protocol #12605000362695). Participants were recruited through advertisements, their private psychiatrists and database screening. All participants provided written informed consent. The trial setting was in the public and private outpatient psychiatry clinics of the participating centers. The trial was approved by each participating research and ethics committee (Barwon Health, Southwest Area Mental Health Service, Bendigo Health, all in Victoria, Australia), and was conducted according to Good Clinical Practice guidelines.
All randomized participants received two NAC (500 mg) capsules twice daily (2 g daily), or matching placebo. We selected a daily dose that was at the upper dosing range for published clinical trials of oral NAC of 12 weeks to 12 months duration, and that reported evidence of tolerability and some efficacy (Adair et al., 2001; Van Schooten et al., 2002; Behr et al., 2002; Demedts et al., 2005).
Individuals needed to meet DSM-IV criteria for bipolar disorder (I or II) with at least 1 documented episode of illness (depressive, manic or mixed) in the previous 6 months, and had to have been on stable therapy for at least 1 month prior to randomisation. Participants were required to have the capacity to consent to the study and comply with study procedures, and utilise effective contraception where indicated.
Exclusion criteria included individuals with a known or suspected clinically relevant systemic medical disorder, including asthma, bronchospasm, or respiratory insufficiency, recent gastrointestinal ulcers, and individuals who were pregnant or lactating. Individuals taking greater than 500 mg of NAC/day, 200 μg of selenium/day or 500 IU of Vitamin E/day were excluded, as were those with a history of anaphylaxis with NAC or any component of the preparation. Inability to comply with either the requirements of informed consent or the treatment protocol was also an exclusion criterion.
Withdrawal from the study occurred if participants ceased taking their trial medication for 7 consecutive days, stopped effective contraception or became pregnant. Dose changes to existing medications, or the addition or removal of an agent were accepted, and participants were allowed to continue with the study. Participants were withdrawn from the study if they revoked their consent or developed serious adverse events associated with the study drug, which could occur either at the request of the patient or the discretion of the investigator.
Participants were assessed at baseline using a structured clinical interview (MINI-plus) and underwent a physical examination. Clinical status was assessed using the MADRS, BDRS, YMRS, CGI-Improvement and Severity scales for bipolar disorder (CGI-I-BP, CGI-S-BP), GAF, SOFAS, SLICE/LIFE, LIFE RIFT, and Q-LES-Q.
These scales were repeated 2 weekly for the first 4 weeks and 4-weekly thereafter for a total of 24 weeks, or on the day of study termination if the patient withdrew prior to the final scheduled visit. A follow-up visit was conducted 4 weeks (±2 weeks) after the trial completion, either at trial endpoint (week 24), or premature discontinuation, to determine any change in clinical status on treatment discontinuation.
Time to any intervention for mood symptoms was a further outcome measure. […]

[1] = NAC 2 g daily plus treatment as usual, week 24
[2] = post-treatment discontinuation (washout, week 28)
[3] = week 24, MMRM, between treatment group LS mean difference

CC(=O)N[C@@H](CS)C(=O)O [NAC, N-acetyl cysteine]
BDRS: End point to Week 24 (Mean ± SD), NAC [1]: 6.7 (6.4)
CGI-I-BP: End point to Week 24 (Mean ± SD), NAC [1]: 3.1 (1.6)
CGI-I-D: End point to Week 24 (Mean ± SD), NAC [1]: 3.2 (1.6)
CGI-I-M: End point to Week 24 (Mean ± SD), NAC [1]: 3.7 (1.1)
CGI-S-BP: End point to Week 24 (Mean ± SD), NAC [1]: 2.5 (1.2)
CGI-S-D: End point to Week 24 (Mean ± SD), NAC [1]: 2.3 (1.1)
CGI-S-M: End point to Week 24 (Mean ± SD), NAC [1]: 1.9 (1.2)
GAF: End point to Week 24 (Mean ± SD), NAC [1]: 71.3 (13.9)
LIFE-RIFE: End point to Week 24 (Mean ± SD), NAC [1]: 8.9 (3.3)
MADRS: End point to Week 24 (Mean ± SD), NAC [1]: 6.6 (7.4)
Q-LES-Q: End point to Week 24 (Mean ± SD), NAC [1]: 59.2 (12.7)
SLICE-LIFE: End point to Week 24 (Mean ± SD), NAC [1]: 14.9 (5.2)
SOFAS: End point to Week 24 (Mean ± SD), NAC [1]: 73.7 (13.4)
YMRS: End point to Week 24 (Mean ± SD), NAC [1]: 2.1 (3.3)
Adverse event: headaches (NAC group, placebo 8%): 18%
Adverse event: heartburn (NAC group, placebo 8%): 16%
Adverse event: increased pain in joints (NAC group, placebo 8%): 16%
Adverse event: changed energy (NAC group, placebo 27%): 21%
Time to a mood episode (Kaplan Meier) (NAC versus placebo, log-rank test): did not reveal any significant differences
Effect sizes (Cohen's d) on all rating scales (after 24 weeks of NAC treatment): moderate to large effects
Treatment benefit at the post discontinuation visit (any of the scales, week 28): not evident
Adverse events, NAC group compared to placebo group (checklist of 44 somatic items): No reported event was significantly more common
Serious adverse events (SAE) in the group (of the 7 reported, 4 in placebo group): 3
BDRS: Post-treatment to Week 28 (Mean ± SD), NAC [2]: 12.1 (10.8)
CGI-I-BP: Post-treatment to Week 28 (Mean ± SD), NAC [2]: 3.5 (1.5)
CGI-I-D: Post-treatment to Week 28 (Mean ± SD), NAC [2]: 3.7 (1.7)
CGI-I-M: Post-treatment to Week 28 (Mean ± SD), NAC [2]: 3.7 (1.0)
CGI-S-BP: Post-treatment to Week 28 (Mean ± SD), NAC [2]: 3.1 (1.5)
CGI-S-D: Post-treatment to Week 28 (Mean ± SD), NAC [2]: 3.1 (1.7)
CGI-S-M: Post-treatment to Week 28 (Mean ± SD), NAC [2]: 1.9 (0.9)
GAF: Post-treatment to Week 28 (Mean ± SD), NAC [2]: 66.6 (14.7)
LIFE-RIFE: Post-treatment to Week 28 (Mean ± SD), NAC [2]: 10.8 (4.2)
MADRS: Post-treatment to Week 28 (Mean ± SD), NAC [2]: 12.2 (11.6)
Q-LES-Q: Post-treatment to Week 28 (Mean ± SD), NAC [2]: 52.8 (11.4)
SLICE-LIFE: Post-treatment to Week 28 (Mean ± SD), NAC [2]: 17.2 (6.0)
SOFAS: Post-treatment to Week 28 (Mean ± SD), NAC [2]: 66.9 (16.2)
YMRS: Post-treatment to Week 28 (Mean ± SD), NAC [2]: 2.8 (3.4)
Response, defined as a 50% reduction in total MADRS score, participants (week 20 compared to baseline, placebo 21): 46%
CGI-I-BP: NAC-Placebo at Endpoint LS Mean [3]: −0.67
CGI-I-D: NAC-Placebo at Endpoint LS Mean [3]: −0.62
CGI-I-M: NAC-Placebo at Endpoint LS Mean [3]: −0.05
CGI-S-D: NAC-Placebo at Endpoint LS Mean [3]: −0.67
CGI-S-M: NAC-Placebo at Endpoint LS Mean [3]: −0.03
Response, defined as a 50% reduction in total MADRS score, participants (week 24 compared to baseline, placebo 18): 51%
